Test results taken from patent EP1247803A2, “Indolinone compounds suitable for modulation of protein kinases” (Sugen, Inc., priority 1996, dated 1998).

Target: T1, FLK-1 receptor (Mus musculus, UniProt P35918)
T1 construct: expressed in transfected cells; host or cells: NIH3T3 C7#3
Experiment: FLK-1 ELISA (kinase activity of the FLK-1 receptor in FLK-1/NIH3T3 cells, VEGF stimulated)
Format: cell-based
Method in brief: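 FLK-1-expressing NIH3T3 C7#3 cells, starved overnight in 0.1% FBS medium, were treated with compounds at a 1:200 final dilution (0.5% DMSO) for 2 h at 37 °C, with VEGF stimulation. FLK-1 kinase activity was read by ELISA on anti-rabbit IgG plates using affinity-purified anti-FLK-1 antiserum.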

T1 sequence (P35918 20-1345): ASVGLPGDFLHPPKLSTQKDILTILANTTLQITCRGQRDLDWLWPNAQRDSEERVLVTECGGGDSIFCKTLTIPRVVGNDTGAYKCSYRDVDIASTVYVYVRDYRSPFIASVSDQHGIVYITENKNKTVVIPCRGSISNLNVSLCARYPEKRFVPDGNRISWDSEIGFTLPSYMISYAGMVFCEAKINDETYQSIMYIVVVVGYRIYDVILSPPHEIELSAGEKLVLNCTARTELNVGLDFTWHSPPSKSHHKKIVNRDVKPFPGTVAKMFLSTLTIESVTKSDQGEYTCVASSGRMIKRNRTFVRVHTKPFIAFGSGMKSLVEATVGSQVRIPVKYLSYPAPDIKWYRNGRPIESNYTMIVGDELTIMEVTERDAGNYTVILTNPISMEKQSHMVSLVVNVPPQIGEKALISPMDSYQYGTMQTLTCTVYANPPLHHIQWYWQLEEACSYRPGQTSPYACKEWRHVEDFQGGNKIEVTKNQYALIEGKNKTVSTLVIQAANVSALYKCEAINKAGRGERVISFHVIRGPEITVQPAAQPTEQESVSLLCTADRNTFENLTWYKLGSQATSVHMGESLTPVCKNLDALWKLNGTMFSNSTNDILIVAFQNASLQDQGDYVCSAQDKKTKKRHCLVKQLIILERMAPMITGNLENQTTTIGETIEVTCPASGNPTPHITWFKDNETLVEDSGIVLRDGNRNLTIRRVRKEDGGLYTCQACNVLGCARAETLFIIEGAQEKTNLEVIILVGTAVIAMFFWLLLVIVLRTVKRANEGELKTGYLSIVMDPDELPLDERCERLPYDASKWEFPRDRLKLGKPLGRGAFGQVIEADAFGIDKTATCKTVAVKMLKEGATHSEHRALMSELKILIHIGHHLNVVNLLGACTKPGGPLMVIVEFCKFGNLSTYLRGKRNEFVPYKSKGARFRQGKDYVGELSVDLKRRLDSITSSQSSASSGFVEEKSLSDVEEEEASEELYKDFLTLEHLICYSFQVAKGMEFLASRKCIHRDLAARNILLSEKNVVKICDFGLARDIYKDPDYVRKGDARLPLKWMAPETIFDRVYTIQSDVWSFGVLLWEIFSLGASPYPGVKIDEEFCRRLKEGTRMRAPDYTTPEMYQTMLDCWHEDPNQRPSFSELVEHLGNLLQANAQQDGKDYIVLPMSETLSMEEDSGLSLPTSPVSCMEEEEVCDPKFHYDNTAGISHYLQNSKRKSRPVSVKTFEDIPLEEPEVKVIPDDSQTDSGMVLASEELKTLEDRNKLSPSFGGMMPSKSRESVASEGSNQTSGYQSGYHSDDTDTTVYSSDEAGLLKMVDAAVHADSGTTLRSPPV

## CC(C)(C)c1cc(C=C2C(=O)Nc3c(Br)cc(Br)cc32)cc([N+](=O)[O-])c1O [10722/A02]
  Fik Kinase %Inhibition: 0.8%

## O=C1Nc2ccc(I)cc2C1=Cc1ccc(C(F)(F)F)cc1 [10722/B11]
  Fik Kinase %Inhibition: 5.2%

## Cc1cc(C)c(C=C2C(=O)Nc3ccc(S(=O)(=O)N4CCOCC4)cc32)[nH]1 [10721/F08]
  Fik Kinase %Inhibition: -6.4%

## O=C1Nc2ccc(S(=O)(=O)Nc3ccc(C(F)(F)F)cc3)cc2C1=Cc1cc2c([nH]1)CCCC2 [10721/E05]
  Fik Kinase %Inhibition: 10.8%

## CNS(=O)(=O)c1ccc2c(c1)C(=Cc1cc(C)c(O)c(C)c1)C(=O)N2 [10722/D07]
  Fik Kinase %Inhibition: 14.1%

## O=C1Nc2ccc(S(=O)(=O)Nc3ccc(C(F)(F)F)cc3)cc2C1=Cc1ccc([N+](=O)[O-])s1 [10722/E04]
  Fik Kinase %Inhibition: 38.6%

## CCCCN(CCCC)c1ccc(C=C2C(=O)Nc3ccc(S(=O)(=O)NC)cc32)cc1 [10722/D10]
  Fik Kinase %Inhibition: 8.2%

## CC(C)(C)c1cc(C=C2C(=O)Nc3ccc(S(=O)(=O)N4CCOCC4)cc32)ccc1O [10721/F09]
  Fik Kinase %Inhibition: 65.2%

## CC(C)(C)c1cc(C=C2C(=O)Nc3ccc(S(=O)(=O)Nc4ccc(C(F)(F)F)cc4)cc32)cc(C(C)(C)C)c1O [10721/E11]
  Fik Kinase %Inhibition: 0.7%

## CNS(=O)(=O)c1ccc2c(c1)C(=Cc1c[nH]c3ccccc13)C(=O)N2 [10717/D06]
  Fik Kinase %Inhibition: 1.0%

## CCCCN(CCCC)c1ccc(C=C2C(=O)Nc3ccc(S(=O)(=O)Nc4ccc(C(F)(F)F)cc4)cc32)cc1 [10722/E10]
  Fik Kinase %Inhibition: 3.1%

## CNS(=O)(=O)c1ccc2c(c1)C(=Cc1ccc(F)cc1)C(=O)N2 [10717/D05]
  Fik Kinase %Inhibition: -3.8%

## O=C1Nc2c(Br)cc(Br)cc2C1=Cc1csc([N+](=O)[O-])c1 [10722/A09]
  Fik Kinase %Inhibition: 7.3%

## CNS(=O)(=O)c1ccc2c(c1)C(=Cc1csc([N+](=O)[O-])c1)C(=O)N2 [10722/D09]
  Fik Kinase %Inhibition: 14.7%

## O=C1Nc2ccc(I)cc2C1=Cc1ccc(C(=O)O)cc1 [10722/B05]
  Fik Kinase %Inhibition: 18.5%

## Cc1cc(C=C2C(=O)Nc3ccc(S(=O)(=O)Nc4ccc(C(F)(F)F)cc4)cc32)sc1C [10721/E04]
  Fik Kinase %Inhibition: 16.0%

## CC(C)(C)c1cc(C=C2C(=O)Nc3ccc(CCCl)cc32)ccc1O [10721/G09]
  Fik Kinase %Inhibition: 20.4%

## CNS(=O)(=O)c1ccc2c(c1)C(=Cc1cccs1)C(=O)N2 [10717/D03]
  Fik Kinase %Inhibition: 1.1%

## O=C1Nc2ccc(CCCl)cc2C1=Cc1cc2c([nH]1)CCCC2 [10721/G05]
  Fik Kinase %Inhibition: -15.1%

## CC(C)(C)c1cc(C=C2C(=O)Nc3ccc(CCCl)cc32)cc(C(C)(C)C)c1O [10721/G11]
  Fik Kinase %Inhibition: -7.1%

## O=C1Nc2ccc(S(=O)(=O)Nc3ccc(C(F)(F)F)cc3)cc2C1=Cc1ccc(F)cc1F [10722/E06]
  Fik Kinase %Inhibition: 21.4%

## CNS(=O)(=O)c1ccc2c(c1)C(=Cc1ccc(Br)cc1)C(=O)N2 [10717/D08]
  Fik Kinase %Inhibition: 6.8%

## Cn1c(C=C2C(=O)Nc3ccc(S(=O)(=O)N4CCOCC4)cc32)nc2ccccc21 [10721/F02]
  Fik Kinase %Inhibition: 17.0%

## Cc1cc(C=C2C(=O)Nc3c(Br)cc(Br)cc32)cc(C)c1O [10722/A07]
  Fik Kinase %Inhibition: 9.4%

## O=C1Nc2ccc(S(=O)(=O)N3CCOCC3)cc2C1=Cc1cc([N+](=O)[O-])cc(CCl)c1O [10721/F06]
  Fik Kinase %Inhibition: 2.2%

## CNS(=O)(=O)c1ccc2c(c1)C(=Cc1cccn1C)C(=O)N2 [10717/D04]
  Fik Kinase %Inhibition: -2.1%

## O=C1Nc2ccc(S(=O)(=O)Nc3ccc(C(F)(F)F)cc3)cc2C1=Cc1ccc(C(F)(F)F)cc1 [10722/E11]
  Fik Kinase %Inhibition: 15.3%

## O=C1Nc2ccc(S(=O)(=O)Nc3ccc(C(F)(F)F)cc3)cc2C1=Cc1cc([N+](=O)[O-])cc(CCl)c1O [10721/E06]
  Fik Kinase %Inhibition: 40.4%

## O=C1Nc2c(Br)cc(Br)cc2C1=Cc1ccc(C(=O)O)cc1 [10722/A05]
  Fik Kinase %Inhibition: 10.5%

## Cn1cc(Cl)c(C=C2C(=O)Nc3ccc(CCCl)cc32)n1 [10721/G03]
  Fik Kinase %Inhibition: 12.1%

## CNS(=O)(=O)c1ccc2c(c1)C(=Cc1cc([N+](=O)[O-])c(O)c(C(C)(C)C)c1)C(=O)N2 [10722/D02]
  Fik Kinase %Inhibition: 30.7%

## Cc1cc(C)c(C=C2C(=O)Nc3ccc(CCCl)cc32)[nH]1 [10721/G08]
  Fik Kinase %Inhibition: 5.4%

## CNS(=O)(=O)c1ccc2c(c1)C(=Cc1cc(C(C)(C)C)c(O)c(C(C)(C)C)c1)C(=O)N2 [10721/D11]
  Fik Kinase %Inhibition: 20.6%

## CC(C)(C)c1cc(C=C2C(=O)Nc3ccc(I)cc32)cc([N+](=O)[O-])c1O [10722/B02]
  Fik Kinase %Inhibition: 10.1%

## Cc1cc(C)c(C=C2C(=O)Nc3ccc(S(=O)(=O)Nc4ccc(C(F)(F)F)cc4)cc32)[nH]1 [10721/E08]
  Fik Kinase %Inhibition: 15.7%

## CCOc1ccccc1C=C1C(=O)Nc2ccc(S(=O)(=O)NC)cc21 [10717/D02]
  Fik Kinase %Inhibition: 5.1%

## O=C1Nc2c(Br)cc(Br)cc2C1=Cc1c(O)cc(O)cc1O [10722/A03]
  Fik Kinase %Inhibition: 6.7%

## CC(C)(C)c1cc(C=C2C(=O)Nc3ccc(S(=O)(=O)N4CCOCC4)cc32)cc(Br)c1O [10721/F10]
  Fik Kinase %Inhibition: 49.6%

## O=C1Nc2ccc(S(=O)(=O)Nc3ccc(C(F)(F)F)cc3)cc2C1=Cc1c(O)cc(O)cc1O [10722/E03]
  Fik Kinase %Inhibition: 10.7%

## CC(C)(C)c1cc(C=C2C(=O)Nc3ccc(S(=O)(=O)N4CCOCC4)cc32)cc(C(C)(C)C)c1O [10721/F11]
  Fik Kinase %Inhibition: 29.7%

## CCCCN(CCCC)c1ccc(C=C2C(=O)Nc3ccc(I)cc32)cc1 [10722/B10]
  Fik Kinase %Inhibition: -0.9%

## CNS(=O)(=O)c1ccc2c(c1)C(=Cc1ccc([N+](=O)[O-])s1)C(=O)N2 [10722/D04]
  Fik Kinase %Inhibition: 23.5%

## CNS(=O)(=O)c1ccc2c(c1)C(=Cc1ccc(C(F)(F)F)cc1)C(=O)N2 [10722/D11]
  Fik Kinase %Inhibition: 9.6%

## CC(C)(C)c1cc(C=C2C(=O)Nc3ccc(S(=O)(=O)Nc4ccc(C(F)(F)F)cc4)cc32)cc(Cl)c1O [10722/E08]
  Fik Kinase %Inhibition: 18.6%

## CC(C)(C)c1cc(C=C2C(=O)Nc3ccc(CCCl)cc32)cc(Br)c1O [10721/G10]
  Fik Kinase %Inhibition: 24.4%

## CNS(=O)(=O)c1ccc2c(c1)C(=Cc1c(O)cc(O)cc1O)C(=O)N2 [10722/D03]
  Fik Kinase %Inhibition: 15.0%

## Cn1cc(Cl)c(C=C2C(=O)Nc3ccc(S(=O)(=O)Nc4ccc(C(F)(F)F)cc4)cc32)n1 [10721/E03]
  Fik Kinase %Inhibition: 10.9%

## O=C1Nc2c(Br)cc(Br)cc2C1=Cc1cccs1 [10717/A03]
  Fik Kinase %Inhibition: 2.9%

## CCCCN(CCCC)c1ccc(C=C2C(=O)Nc3c(Br)cc(Br)cc32)cc1 [10722/A10]
  Fik Kinase %Inhibition: 6.6%

## Cc1cc(C=C2C(=O)Nc3ccc(S(=O)(=O)N4CCOCC4)cc32)sc1C [10721/F04]
  Fik Kinase %Inhibition: 7.4%

## CC(C)(C)c1cc(C=C2C(=O)Nc3ccc(S(=O)(=O)Nc4ccc(C(F)(F)F)cc4)cc32)cc(Br)c1O [10721/E10]
  Fik Kinase %Inhibition: 9.3%

## CC(C)(C)c1cc(C=C2C(=O)Nc3ccc(I)cc32)cc(Cl)c1O [10722/B08]
  Fik Kinase %Inhibition: 11.2%

## CNS(=O)(=O)c1ccc2c(c1)C(=Cc1ccc(C)s1)C(=O)N2 [10717/D07]
  Fik Kinase %Inhibition: -8.4%

## Cc1cc(C=C2C(=O)Nc3ccc(CCCl)cc32)sc1C [10721/G04]
  Fik Kinase %Inhibition: 3.2%

## O=C1Nc2ccc(CCCl)cc2C1=Cc1ccc(Cl)s1 [10721/G07]
  Fik Kinase %Inhibition: 3.3%

## O=C1Nc2ccc(S(=O)(=O)Nc3ccc(C(F)(F)F)cc3)cc2C1=Cc1ccc(Cl)s1 [10721/E07]
  Fik Kinase %Inhibition: 15.6%

## O=C1Nc2c(Br)cc(Br)cc2C1=Cc1ccc(C(F)(F)F)cc1 [10722/A11]
  Fik Kinase %Inhibition: 6.7%

## Cc1cc(C=C2C(=O)Nc3ccc(S(=O)(=O)Nc4ccc(C(F)(F)F)cc4)cc32)cc(C)c1O [10722/E07]
  Fik Kinase %Inhibition: 24.3%

## O=C1Nc2ccc(CCCl)cc2C1=Cc1cc([N+](=O)[O-])cc(CCl)c1O [10721/G06]
  Fik Kinase %Inhibition: 18.9%

## O=C1Nc2ccc(S(=O)(=O)Nc3ccc(C(F)(F)F)cc3)cc2C1=Cc1ccc(C(=O)O)cc1 [10722/E05]
  Fik Kinase %Inhibition: 19.2%

## Cn1cc(Cl)c(C=C2C(=O)Nc3ccc(S(=O)(=O)N4CCOCC4)cc32)n1 [10721/F03]
  Fik Kinase %Inhibition: 9.1%

## O=C1Nc2c(Br)cc(Br)cc2C1=Cc1ccc([N+](=O)[O-])s1 [10722/A04]
  Fik Kinase %Inhibition: 13.4%

## O=C1Nc2ccc(S(=O)(=O)N3CCOCC3)cc2C1=Cc1ccc(Cl)s1 [10721/F07]
  Fik Kinase %Inhibition: 4.8%

## CNS(=O)(=O)c1ccc2c(c1)C(=Cc1ccc(C(=O)O)cc1)C(=O)N2 [10722/D05]
  Fik Kinase %Inhibition: 21.4%

## CC(C)(C)c1cc(C=C2C(=O)Nc3ccc(S(=O)(=O)Nc4ccc(C(F)(F)F)cc4)cc32)ccc1O [10721/E09]
  Fik Kinase %Inhibition: 36.9%

## O=C1Nc2c(Br)cc(Br)cc2C1=Cc1ccc(F)cc1F [10722/A06]
  Fik Kinase %Inhibition: 9.6%

## CNS(=O)(=O)c1ccc2c(c1)C(=Cc1c(O)cccc1OC)C(=O)N2 [10717/D10]
  Fik Kinase %Inhibition: -6.0%

## CNS(=O)(=O)c1ccc2c(c1)C(=Cc1ccc(F)cc1F)C(=O)N2 [10722/D06]
  Fik Kinase %Inhibition: 21.9%

## Cn1c(C=C2C(=O)Nc3ccc(S(=O)(=O)Nc4ccc(C(F)(F)F)cc4)cc32)nc2ccccc21 [10721/E02]
  Fik Kinase %Inhibition: 17.2%

## CC(C)(C)c1cc(C=C2C(=O)Nc3ccc(S(=O)(=O)Nc4ccc(C(F)(F)F)cc4)cc32)cc([N+](=O)[O-])c1O [10722/E02]
  Fik Kinase %Inhibition: 17.0%

## CNS(=O)(=O)c1ccc2c(c1)C(=Cc1ccc[nH]1)C(=O)N2 [10717/D09]
  Fik Kinase %Inhibition: -55.0%

## O=C1Nc2ccc(S(=O)(=O)N3CCOCC3)cc2C1=Cc1cc2c([nH]1)CCCC2 [10721/F05]
  Fik Kinase %Inhibition: 8.1%

## O=C1Nc2ccc(S(=O)(=O)Nc3ccc(C(F)(F)F)cc3)cc2C1=Cc1csc([N+](=O)[O-])c1 [10722/E09]
  Fik Kinase %Inhibition: 16.2%

## CC(C)(C)c1cc(C=C2C(=O)Nc3c(Br)cc(Br)cc32)cc(Cl)c1O [10722/A08]
  Fik Kinase %Inhibition: 13.7%
